{
  "source": "paper PMC9599640",
  "origin": "cited, not measured here",
  "parameters": "method as in PMID 27217383",
  "details": "phase I trial of abemaciclib",
  "data": [
    {"smiles": "CCN1CCN(Cc2ccc(Nc3ncc(F)c(-c4cc(F)c5nc(C)n(C(C)C)c5c4)n3)nc2)CC1", "note": "[abemaciclib]", "values": [
      {"measurement": "MTD", "result": 200, "unit": "mg BID"}
    ]}
  ]
}
